According to patent US20160297763A1, “Heteroaryl hydroxamic acid derivatives and their use in the treatment, amelioration or prevention of a viral disease” (priority 2011, published 2016):
Where two headings read alike, the source gives them in different places.

System: influenza A virus A/Aichi/2/68 (H3N2)
Assay: Cytopathic effect (CPE) assay H3N2
Assay type: cell-based, influenza A virus (H3N2) on MDCK cells
Settings: for inhibition at 50 µM: H3N2, activity conc 50 (μM per method); for inhibition at 10 µM: H3N2, activity conc 10 (μM per method); for inhibition at 2 µM: H3N2, activity conc 2 (μM per method); for CPE H3N2 reduction (%): activity conc 50 (μM per method)
Method: A possible measure of the […] antiviral activity of the compounds having the formula I or II is the CPE assay disclosed herein. […] In this connection, the reduction in the virus-mediated cytopathic effect (CPE) upon treatment with the compounds was calculated as follows: The cell viability of infected-treated and uninfected-treated cells was determined using an ATP-based cell viability assay (Promega). The response in relative luminescent units (RLU) of infected-untreated samples was subtracted from the response (RLU) of the infected-treated samples and then normalized to the viability of the corresponding uninfected sample resulting in % CPE reduction.
The influenza A virus (IAV) was obtained from American Tissue Culture Collection (A/Aichi/2/68 (H3N2); VR-547). Virus stocks were prepared by propagation of virus on Mardin-Darby canine kidney (MDCK; ATCC CCL-34) cells and infectious titres of virus stocks were determined by the 50% tissue culture infective dose (TCID50) analysis as described in Reed, L. J., and H. Muench. 1938, Am. J. Hyg. 27:493-497.
MDCK cells were seeded in 96-well plates at 2×10^4 cells/well using DMEM/Ham's F-12 (1:1) medium containing 10% foetal bovine serum (FBS), 2 mM L-glutamine and 1 antibiotics (all from PAA). Until infection the cells were incubated for 5 hrs at 37° C., 5.0 CO2 to form a ˜80% confluent monolayer on the bottom of the well. Each test compound was dissolved in DMSO and generally tested at 25 μM and 250 μM. In those cases where the compounds were not soluble at that concentration they were tested at the highest soluble concentration. The compounds were diluted in infection medium (DMEM/Ham's F-12 (1:1) containing 5 μg/ml trypsin, and 1% antibiotics) for a final plate well DMSO concentration of 1%. The virus stock was diluted in infection medium (DMEM/Ham's F-12 (1:1) containing 5 μg/ml Trypsin, 1% DMSO, and 1% antibiotics) to a theoretical multiplicity of infection (MOI) of 0.05.
After removal of the culture medium and one washing step with PBS, virus and compound were added together to the cells. In the wells used for cytotoxicity determination (i.e. in the absence of viral infection), no virus suspension was added. Instead, infection medium was added. Each treatment was conducted in two replicates. After incubation at 37° C., 5% CO2 for 48 hrs, each well was observed microscopically for apparent cytotoxicity, precipitate formation, or other notable abnormalities. Then, cell viability was determined using CellTiter-Glo luminescent cell viability assay (Promega). The supernatant was removed carefully and 65 μl of the reconstituted reagent were added to each well and incubated with gentle shaking for 15 min at room temperature. Then, 60 μl of the solution was transferred to an opaque plate and luminescence (RLU) was measured using Synergy HT plate reader (Biotek).
Relative cell viability values of uninfected-treated versus uninfected-untreated cells were used to evaluate cytotoxicity of the compounds. Substances with a relative viability below 80% at the tested concentration were regarded as cytotoxic and retested at lower concentrations.
Reduction in the virus-mediated cytopathic effect (CPE) upon treatment with the compounds was calculated as follows: The response (RLU) of infected-untreated samples was subtracted from the response (RLU) of the infected-treated samples and then normalized to the viability of the corresponding uninfected sample resulting in % CPE reduction.

[1] = Influenza A virus, read-out: CPE H3N2 reduction (%)
[2] = Influenza A virus, H3N2, activity conc 5 (μM per method), read-out: CPE H3N2 reduction (%)

Row | Compound | inhibition at 50 µM [1] [%] | further results
1 | O=C(c1cc(N2CCCC(F)(F)C2)ccn1)N(O)Cc1ccccc1 [drawing 224] | 8.9 | 
2 | O=C(NO)c1cc(N2CCOCC2)ccn1 [drawing 212] | -7.1 | 
3 | O=C(NO)c1cc(NS(=O)(=O)Cc2ccc(Cl)cc2)ccn1 | -3.98 | 
4 | CN(OCc1ccccc1)C(=O)c1ccc(-c2ccccc2)cn1 | -2.6 | 
5 | O=C(NOCc1ccccc1)c1ccc(N2CCCC2)cn1 [drawing 177] |  | inhibition at 20 µM (Influenza A virus, H3N2, activity conc 20 (μM per method), read-out: CPE H3N2 reduction (%)): -8.7%
6 | Cc1cccc(-c2ccc(C(=O)N(O)Cc3ccccc3)nc2)c1 [drawing 181] |  | inhibition at 10 µM [1]: 15.5%
7 | CC(C)c1cccc(-c2ccc(C(=O)NO)nc2)c1 [drawing 205] |  | inhibition at 2 µM [1]: -2.1%
8 | CCONC(=O)c1ccccn1 | 12.5 | 
9 | CN(O)C(=O)c1cc(N2CCCCC2)ccn1 | -0.9 | 
10 | Cl.O=C(c1cc(N2CCOCC2)ccn1)N(O)Cc1ccccc1 [drawing 242] |  | CPE H3N2 reduction (%): 6.3%
11 | CN(Cc1ccccc1)c1ccnc(C(=O)N(O)Cc2ccccc2)c1 |  | inhibition at 5 µM [2]: 3.8%
12 | O=C(c1cc(NS(=O)(=O)Cc2cccc(F)c2)ccn1)N(O)Cc1ccccc1 | 9.6 | 
13 | O=C(c1cc(NS(=O)(=O)Cc2ccc(F)cc2)ccn1)N(O)Cc1ccccc1 | -1.1 | 
14 | Cl.O=C(NO)c1cc(NS(=O)(=O)Cc2cc(Cl)cc(Cl)c2)ccn1 [drawing 276] |  | CPE H3N2 reduction (%): 9.3%
15 | O=C(NOCc1ccccc1)c1ccc(-c2ccccc2)cn1 [drawing 172] |  | inhibition at 2 µM [1]: -4%
16 | O=C(c1cc(NS(=O)(=O)Cc2cccc(C(F)(F)F)c2)ccn1)N(O)Cc1ccccc1 | 22.4 | 
17 | O=C(NO)c1cc(N2CCCCC2)ccn1 |  | inhibition at 5 µM [2]: -4.1%
18 | CN(c1ccnc(C(=O)NO)c1)S(=O)(=O)Cc1ccccc1 |  | inhibition at 5 µM [2]: -1.7%
19 | O=C(c1cc(C2=CCCCC2)ccn1)N(O)Cc1ccccc1 [drawing 257] |  | inhibition at 1 µM (Influenza A virus, H3N2, activity conc 1 (μM per method), read-out: CPE H3N2 reduction (%)): 3.4%

Row | Compound | inhibition at 50 µM [1] [%] | further results
20 | CCONC(=O)c1ccc2c(=O)n(C)c(=O)n(C)c2n1 | -0.4 | 
21 | CCONC(=O)c1cc(NCC2CCN(Cc3ccccc3)CC2)ccn1 | 14.8 | 
22 | O=C(c1cc(C2CCNCC2)ccn1)N(O)Cc1ccccc1 | -1.4 | 
23 | CN(O)C(=O)c1cc2ccccc2cn1 [drawing 199] | -0.6 | 
24 | CN(C)CCNC(=O)c1cccc(-c2ccnc(C(=O)N(O)Cc3ccccc3)c2)c1 [drawing 230] | 8.9 | 
25 | O=C(c1cc(C2=CCCNC2)ccn1)N(O)Cc1ccccc1 | 9.5 | 
26 | O=C(c1cc(-c2ccccc2)ccn1)N(O)Cc1ccccc1 [drawing 211] |  | inhibition at 10 µM [1]: -9.3%
27 | CC(C)(C)OC(=O)N1CCN(c2ccnc(C(=O)N(O)Cc3ccccc3)c2)CC1 | 34 | 
28 | CON(C)C(=O)c1cccc(C)n1 | -0.9 | 
29 | NC1CCN(c2ccnc(C(=O)N(O)Cc3ccccc3)c2)CC1 | 3.2 | 
30 | CCONC(=O)c1cccc(C)n1 | -2.1 | 
31 | O=C(c1cc(NS(=O)(=O)Cc2ccccc2)ccn1)N(O)Cc1ccccc1 [drawing 209] | 6.2 | 
32 | O=C(c1cc(C2CCCCC2)ccn1)N(O)Cc1ccccc1 [drawing 258] |  | inhibition at 5 µM [2]: -0.5%
33 | O=C(NO)c1cc(NS(=O)(=O)Cc2ccccc2Cl)ccn1 | 1.5 | 
34 | Cc1cccc(C(=O)NOCc2ccccc2)n1 [drawing 170] | -2.7 | 
35 | O=C(c1cc(C2CCCNC2)ccn1)N(O)Cc1ccccc1 (stereo not shown) | 6.1 | 
36 | Cc1c(-c2ccc(Cl)c(C(F)(F)F)c2)sc2nc(N)[nH]c(=O)c12 [SAV-7623] |  | inhibition at 5 µM (Influenza A virus, H3N2, read-out: CPE H3N2 reduction (%), activity conc 5 (μM per method)): 1.9%
37 | Cc1c(-c2ccccc2)sc2nc(NC3CCCCC3)[nH]c(=O)c12 [SAV-7640] |  | inhibition at 5 µM [2]: -3.2%
